Tests used:
[1] = Absorption and fluorescence properties in water; assay type: physicochemical; settings: for λem: λex 360 nm for compound 5, 385 nm for compounds 7 and 10
Description: All chemicals and solvents were purchased from commercial suppliers and used without further purification unless otherwise specified. Prior to use, N,N-dimethylformamide was stored over molecular sieves (4 Å), while toluene and dichloromethane were dried over anhydrous sodium sulfate. All reactions were performed in oven dried flasks under argon atmosphere with magnetic stirring. Reaction progress was monitored by TLC analysis on Macherey-Nagel™ ALUGRAM® Xtra SIL G/UV254 plates. TLC plates were visualized with UV light (wavelengths 254 and 365 nm) or iodine vapour. Compounds were purified by flash chromatography in a glass column (stationary phase - silicagel, high-purity grade 9385, pore size 60 Å, particle size - 230-400 mesh, supplier Sigma-Aldrich). ^1H and ^13C NMR spectra were recorded at room temperature on a Bruker Avance III 700 spectrometer (700 MHz for ^1H and 176 MHz for ^13C) in CDCl3 as solvent. FT-IR spectra were collected using ATR method on a Bruker Vertex 70v spectrometer with an integrated Platinum ATR accessory. The melting points of crystalline compounds were determined in open capillary tubes with a Buchi M-565 apparatus (temperature gradient - 2 °C/min) and are uncorrected. High-resolution mass spectrometry (HRMS) spectra were obtained in ESI mode on a Bruker MicrOTOF-Q III spectrometer. UV-Vis absorption and fluorescence spectra were registered on an Infinity M200 Pro Tecan microplate reader.
Fluorescence properties of final compounds 5, 7 and 10 were investigated in water. The excitation wavelength λex was set to 360 nm for compound 5 and to 385 nm for compounds 7 and 10. The emission maxima λem of all three compounds are located in the 475-525 nm range, which corresponds to the blue part of the visible light spectrum.
On the other hand, as expected an additional double bond in compound 10, compared to compound 7, caused both a bathochromic shift of the emission maxima. […] Table 2. Absorption and fluorescence characteristics of compounds 5, 7 and 10 in water.

[2] = test system: G361 cell line; test: MTT cell viability assay without irradiation (dark viability); assay type: cell-based, human; settings: G361, treated 24 h, no irradiation; viability similar to untreated cells
Description: G361 cell line (human skin melanoma) was cultivated in DMEM medium supplemented with 10% fetal bovine serum, 1% penicillin/streptomycin, 1% glutamine, at 37 °C in 5% CO2 atmosphere. Viability of cells was determined using the MTT (Sigma-Aldrich) assay in 96-well microplates (10^4 per well in 100 µl of DMEM). The test compounds were added 24 h post plating and the cells were then incubated for additional 24 h. Cells were then exposed to an irradiation in 100 µl of PBS with 5 mM glucose and incubated for further 24 h. After the experiment, 50 µl of MTT (dissolved in PBS) was added and cells were incubated for another 3 h at 37 °C and in 5 % CO2. The media was then carefully replaced with 100 µl of DMSO in order to solubilize the violet formazan crystals. The measurement of absorbance was carried out on reader Synergy HT at 570 nm and 690 nm. The cell viability of the samples was determined as a percentage of the control cell viability (100 × average of test group / average of control group). The data for the determination of EC50 was calculated using the Phototox v. 2.0 software (ZEBET). Dark viability was measured in parallel under the same conditions without irradiation. The viability of cells treated with compounds 5, 7 and 10 for 24 h without irradiation was similar to untreated cells, thus concluding that the compounds have no cytotoxicity up to 10 µM concentrations (Figure 4).

[3] = test system: irradiated G361 cells; test: Photodynamic treatment (LED 414 nm) with MTT cell viability assay; assay type: cell-based; settings: Homo sapiens, G-361, light or radiation study
Description: G361 cell line (human skin melanoma) was cultivated in DMEM medium supplemented with 10% fetal bovine serum, 1% penicillin/streptomycin, 1% glutamine, at 37 °C in 5% CO2 atmosphere. Viability of cells was determined using the MTT (Sigma-Aldrich) assay in 96-well microplates (10^4 per well in 100 µl of DMEM). The test compounds were added 24 h post plating and the cells were then incubated for additional 24 h. Cells were then exposed to an irradiation in 100 µl of PBS with 5 mM glucose and incubated for further 24 h. After the experiment, 50 µl of MTT (dissolved in PBS) was added and cells were incubated for another 3 h at 37 °C and in 5 % CO2. The media was then carefully replaced with 100 µl of DMSO in order to solubilize the violet formazan crystals. The measurement of absorbance was carried out on reader Synergy HT at 570 nm and 690 nm. The cell viability of the samples was determined as a percentage of the control cell viability (100 × average of test group / average of control group). The data for the determination of EC50 was calculated using the Phototox v. 2.0 software (ZEBET). Dark viability was measured in parallel under the same conditions without irradiation. An in-house constructed LED based light source specifically designed for the irradiation of 96-well microplates and Petri dishes (Tomecka et al., CZ302829B6, 2006) was used; a maximal wavelength emission of 414 nm and light intensity set to 20 mW/cm^2. For photodynamic treatments, cultivation medium was aspirated and replaced by PBS supplemented with 5 mM glucose. Immediately after irradiation, PBS was removed and full DMEM was added to cells. The cultivation lasted for subsequent 24 h. All assays were performed in triplicates and repeated independently three times. In an initial experiment, G361 cells were treated with the tested compounds for 24 h and then exposed to light (LED source, 414 nm) with a total irradiation dose of 10 J/cm^2. Viability of cells was quantified 24 h after the irradiation by an MTT assay (Table 3). Subsequently, G361 cells treated with compound 7 were also exposed to total irradiation doses of 1 and 50 J/cm^2. Table 3. EC50 of compounds 5, 7 and 10 in irradiated G361 cells (10 J/cm2).

[4] = test system: G361 cell line; test: Reactive oxygen species (ROS) production, CM-H2DCFDA fluorescence; assay type: cell-based, human; settings: G361, 0.052 µM, irradiation of 50 J/cm2 (414 nm)
Description: ROS was quantified using a CM-H2DCFDA (Invitrogen) solution (10 µl 10 µM DCF + 1 ml PBS) and a microplate reader Synergy HT. Right after adding 50 µl of DCF solution, 25 min incubation and irradiation, the ROS production was determined by measuring fluorescence using Synergy HT reader. An excitation wavelength of 485 nm and an emission wavelength of 548 nm were used.

[5] = test system: G361 cells; test: Mitochondrial membrane potential change assay (JC-1); assay type: cell-based, human; settings: G361, 0.052 µM, irradiated with 50 J/cm^2 (414 nm)
Description: Mitochondrial membrane potential change was monitored by the fluorescent dye JC-1. After 24 h incubation the cells were washed by PBS. Then 50 µl of a JC-1 solution (Sigma-Aldrich) was added (5 mg/ml in DMSO + 5 ml PBS) and cells were incubated at 37 °C and in 5 % CO2 for 20 min. After incubation the cells were washed by PBS twice. The results were expressed as the ratio of the green fluorescence (excitation wavelength - 485 nm, emission wavelength - 548 nm) and red fluorescence (excitation wavelength - 520 nm, emission wavelength - 590 nm) retained within the cells. JC fluorescence was measured using Synergy HT reader.

[6] = test system: G361 cells; test: Comet assay (DNA fragmentation); assay type: cell-based, human; settings: irradiated with 50 J/cm2
Description: Microscope slides were pre-coated with 1% HMP agarose (Qbiogene) dissolved in distilled water. After stiffening, two 1% agarose spots (dissolved in PBS) were made and overlayed with a cover slip. Treated or control G361 cells were trypsinized, rinsed by DMEM and then the mixture of 25 µl of cell suspension and 85 µl of 1% LMP agarose (dissolved in PBS) was added to the microscope slides with agarose gel. The microscope slides were immersed in a lysis buffer with 1% Triton X for 1 h and then placed in an electrophoretic tank and dipped into a cool electrophoresis solution for 40 min. After the electrophoresis (20 V, 350 mA, 20 min), the microscopic slides were immersed in a neutralisation buffer (10 min twice). The samples were then stained by SYBR Green (Invitrogen) for 15 min and scored by the SW Comet Score (TriTek Corp.). In order to determine the extent of DNA fragmentation caused by a combination of compound 7 and irradiation in G361 cells, comet assay was performed (Figure 4). The cells were divided into four groups according to degree of DNA fragmentation: 0-10%, 11-30%, 31-50% and 50-100%. […] Table 5. Degree of DNA fragmentation in G361 cell line treated by compound 7 at 0.052 µM and irradiated with 50 J/cm2.

[7] = test system: histone H2A.X phosphorylation at Ser-139; test: DNA damage by immunoblotting of histone H2A.X phosphorylation; assay type: cell-based, human; settings: G361, treated 24 h
Description: After the treatment, cell lysates were prepared in RIPA buffer, then proteins were separated on SDS-polyacrylamide gels and electroblotted onto nitrocellulose membranes. After blocking, overnight incubation with specific primary antibodies and incubation with peroxidase-conjugated secondary antibodies, the peroxidase activity was detected with SuperSignal West Pico reagents (Thermo Scientific) using a CCD camera LAS-4000 (Fujifilm). All primary antibodies were diluted in PBS containing 5% powdered milk and 0.1% Tween 20. The specific antibodies were purchased from Cell Signaling (anti-PARP, clone 46D11; HRP-linked rabbit anti-mouse immunoglobulin), Sigma Aldrich (anti-α-tubulin, clone DM1A), Millipore (anti-phospho-histone H2A.X, Ser139, clone JBW301). To independently confirm DNA damage caused by a combination of compound 7 and irradiation in G361 cells, phosphorylation of histone H2A.X at Ser-139 (yH2A.X) was evaluated using immunoblotting analysis (Figure 5). Increased level of yH2A.X is a well-accepted marker of DNA damage. The cells were treated with different doses of compound 7 for 24 h, then either kept in dark or exposed to light with a total irradiation dose of 1, 10 or 50 J/cm^2 and cultivated for subsequent 24 h. After this period, the cells were harvested and analyzed by immunoblotting.

[8] = test system: Escherichia coli (DH5alpha); test: Antimicrobial activity with light irradiation, colony counting; assay type: cell-based; settings: in combination with blue light irradiation (414 nm), Fig. 6
Description: Antimicrobial activity was tested on Escherichia coli (DH5alpha).The cells were grown aerobically at 37°C in LB medium. When reached exponential growth phase, the suspension was diluted with fresh LB and supplemented with test compounds or with diluted DMSO (as a control) and seeded on Petri dishes with agar media. After 5 hours the plates were exposed to light from a light emitting diode source, a maximal wavelength emission of 414 nm, light intensity set to 20 mW/cm^2 (M. Tomecka, et al., CZ302829B6, 2006). The control samples for dark toxicity were not exposed to the light. After irradiation the plates were in the dark incubator at 37 °C for 16 h and then the colonies were counted.

[9] = 24 h, G361, 24 h treatment, 414 nm, total irradiation dose 10 J/cm2, MTT 24 h after irradiation

λabs [1] [nm]	λem [1] [nm]	Compound	cytotoxicity without irradiation (dark viability) [2] [µM]	EC50 [3, 9] [nM]	EC50 ([3]; G361, 414 nm, total irradiation dose 1 J/cm^2) [nM]	EC50 ([3]; G361, 414 nm, total irradiation dose 50 J/cm^2) [nM]	ROS production increase in comparison to control cells [4] [%]	JC-1 polymer aggregation within mitochondria (mitochondrial membrane potential) [5]	DNA fragmentation in comparison with untreated control cells ([6]; G361, 0.052 µM)	relative number of cells, degree of DNA fragmentation 0-10 % ([6]; G361, treated, 0.052 µM) [%]	relative number of cells, degree of DNA fragmentation 11-30 % ([6]; G361, treated, 0.052 µM) [%]	relative number of cells, degree of DNA fragmentation 31-50 % ([6]; G361, treated, 0.052 µM) [%]	relative number of cells, degree of DNA fragmentation 51-100 % ([6]; G361, treated, 0.052 µM) [%]	H2A.X phosphorylation (yH2A.X) ([7]; irradiation dose 1 J/cm2 (414 nm))	H2A.X phosphorylation (yH2A.X) ([7]; irradiation dose 10 J/cm2 (414 nm))	H2A.X phosphorylation (yH2A.X) ([7]; irradiation dose 50 J/cm2 (414 nm))	H2A.X phosphorylation (yH2A.X) ([7]; kept in dark)	antibacterial effect [8]
355	475	CCCCCCOc1nn(-c2ccccc2)cc1C#Cc1ccc2c(c1)C(C)(C)C(c1ccccc1)=N2 [Compound 5, 5-{[3-(Hexyloxy)-1-phenyl-1H-pyrazol-4-yl]ethynyl}-3,3-dimethyl-2-phenyl-3H-indole]	> 10	6213 ± 38	–	–	–	–	–	–	–	–	–	–	–	–	–	–
380	495	CCCCCCOc1nn(-c2ccccc2)cc1/C=C/c1ccc2c(c1)C(C)(C)C(c1ccccc1)=N2 [Compound 7, 5-{(E)-2-[3-(Hexyloxy)-1-phenyl-1H-pyrazol-4-yl]ethenyl}-3,3-dimethyl-2-phenyl-3H-indole]	> 10	262 ± 2	3080 ± 155	52	30	decrease in JC-1 polymer aggregation within mitochondria	significant DNA fragmentation	62.83 ± 2.72	30.73 ± 4.07	4.84 ± 0.65	1.6 ± 1.59	faint yH2A.X signal	massive increase of yH2A.X	massive increase of yH2A.X	did not show any H2A.X phosphorylation	antibacterial effect
380	525	CCCCCCOc1nn(-c2ccccc2)cc1/C=C/C=C/c1ccc2c(c1)C(C)(C)C(c1ccccc1)=N2 [Compound 10, 5-{(1E, 3E)-4-[3-(Hexyloxy)-1-phenyl-1H-pyrazol-4-yl]buta-1,3-dien-1-yl}-3,3-dimethyl-2-phenyl-3H-indole]	> 10	2060 ± 82	–	–	–	–	–	–	–	–	–	–	–	–	–	–

From patent EP4107145B1, “PYRAZOLE-INDOLE CONJUGATES FOR PHOTODYNAMIC TREATMENT OF CANCER AND BACTERIAL INFECTIONS” (Univerzita Palackého v Olomouci, priority 2020, dated 2021)
